Values quoted from earlier work, collected in PubChem BioAssay AID1259409 (Chemical Carcinogenesis Research Information System (CCRIS), 2018).

Test system: rodent chemically induced tumor inhibition, incidence and multiplicity
Test: CCRIS tumor inhibitor studies
Details: Carcinogen: 4-(METHYLNITROSAMINO)-1-(3-PYRIDYL)-1-BUTANONE, 64091-91-4, Dose [Inhibitor]: 0, Promoter: NONE USED

For `S=C=NCCc1ccccc1`, the “tumour outcome (control, treated, inhibition, significance)” value (1 UMOL ONCE 2 HR PRIOR TO CARCINOGEN DOSE (STUDY DURATION: 16 WK), Route [Inhibitor]: GAVAGE, Species: MOUSE, Strain/Sex: STRAIN-A/FEMALE, Target Tissue: Type of Lesion: LUNG: ADENOMA, Dose [Carcinogen]: 10 UMOL IN 0.1 ML SALINE ONCE) is given as 100%, 100%, 0%, not significant, the “tumour outcome (control, treated, inhibition, significance)” value (1 UMOL/G DIET FOR 15 WK BEGINNING 1 WK POST CARCINOGEN DOSE (STUDY DURATION: 16 WK), Route [Inhibitor]: ORAL, Species: MOUSE, Strain/Sex: STRAIN-A/FEMALE, Target Tissue: Type of Lesion: LUNG: ADENOMA, Dose [Carcinogen]: 10 UMOL ONCE) is given as 100%, 100%, 0%, not significant and the “tumour outcome (control, treated, inhibition, significance)” value (3 UMOL/G DIET FOR 15 WK BEGINNING 1 WK POST CARCINOGEN DOSE (STUDY DURATION: 16 WK), Route [Inhibitor]: ORAL, Species: MOUSE, Strain/Sex: STRAIN-A/FEMALE, Target Tissue: Type of Lesion: LUNG: ADENOMA, Dose [Carcinogen]: 10 UMOL ONCE) is given as 100%, 100%, 0%, not significant. For the same compound, the “tumour outcome (control, treated, inhibition, significance)” value (3 UMOL/G DIET FOR 21 WK BEGINNING 1 WK PRIOR TO FIRST CARCINOGEN DOSE (STUDY DURATION: 104 WK), Route [Inhibitor]: ORAL, Species: RAT, Strain/Sex: F344/MALE, Target Tissue: Type of Lesion: LIVER: ADENOMA, Dose [Carcinogen]: 1.76 MG/KG 3/WK FOR 20 WK) was 12/40 (30%), 9/40 (23%), 23%, not calculated, the “tumour outcome (control, treated, inhibition, significance)” value (3 UMOL/G DIET FOR 21 WK BEGINNING 1 WK PRIOR TO FIRST CARCINOGEN DOSE (STUDY DURATION: 104 WK), Route [Inhibitor]: ORAL, Species: RAT, Strain/Sex: F344/MALE, Target Tissue: Type of Lesion: LIVER: CARCINOMA, Dose [Carcinogen]: 1.76 MG/KG 3/WK FOR 20 WK) was 3/40 (8%), 5/40 (13%), -63%, not calculated and the “tumour outcome (control, treated, inhibition, significance)” value (3 UMOL/G DIET FOR 21 WK BEGINNING 1 WK PRIOR TO FIRST CARCINOGEN DOSE (STUDY DURATION: 104 WK), Route [Inhibitor]: ORAL, Species: RAT, Strain/Sex: F344/MALE, Target Tissue: Type of Lesion: LUNG: ADENOMA, Dose [Carcinogen]: 1.76 MG/KG 3/WK FOR 20 WK) was 8/40 (20%), 5/40 (13%), 35%, not calculated. For the same compound, the “tumour outcome (control, treated, inhibition, significance)” value (3 UMOL/G DIET FOR 21 WK BEGINNING 1 WK PRIOR TO FIRST CARCINOGEN DOSE (STUDY DURATION: 104 WK), Route [Inhibitor]: ORAL, Species: RAT, Strain/Sex: F344/MALE, Target Tissue: Type of Lesion: LUNG: CARCINOMA, Dose [Carcinogen]: 1.76 MG/KG 3/WK FOR 20 WK) was 24/40 (60%), 12/40 (30%), 50%, not calculated, the “tumour outcome (control, treated, inhibition, significance)” value (3 UMOL/G DIET FOR 21 WK BEGINNING 1 WK PRIOR TO FIRST CARCINOGEN DOSE (STUDY DURATION: 104 WK), Route [Inhibitor]: ORAL, Species: RAT, Strain/Sex: F344/MALE, Target Tissue: Type of Lesion: NASAL CAVITY: BENIGN TUMOR, Dose [Carcinogen]: 1.76 MG/KG 3/WK FOR 20 WK) was 8/40 (20%), 6/40 (15%), 25%, not calculated and the “tumour outcome (control, treated, inhibition, significance)” value (3 UMOL/G DIET FOR 21 WK BEGINNING 1 WK PRIOR TO FIRST CARCINOGEN DOSE (STUDY DURATION: 104 WK), Route [Inhibitor]: ORAL, Species: RAT, Strain/Sex: F344/MALE, Target Tissue: Type of Lesion: NASAL CAVITY: SQUAMOUS CELL CARCINOMA, Dose [Carcinogen]: 1.76 MG/KG 3/WK FOR 20 WK) was 3/40 (8%), 7/40 (3%), 63%, not calculated. The “tumour outcome (control, treated, inhibition, significance)” value (3 UMOL/G OF DIET FOR 112 WK BEGINNING 1 WK PRIOR TO CARCINOGEN TREATMENT (STUDY DURATION: 112 WK), Route [Inhibitor]: ORAL, Species: RAT, Strain/Sex: F344/MALE, Target Tissue: Type of Lesion: HEMATOPOIETIC SYSTEM: LEUKEMIA OR LYMPHOMA, Dose [Carcinogen]: 2 PPM IN DRINKING WATER FOR 111 WK) was 26/56 (46%), 28/59 (47%), -2%, not significant, the “tumour outcome (control, treated, inhibition, significance)” value (3 UMOL/G OF DIET FOR 112 WK BEGINNING 1 WK PRIOR TO CARCINOGEN TREATMENT (STUDY DURATION: 112 WK), Route [Inhibitor]: ORAL, Species: RAT, Strain/Sex: F344/MALE, Target Tissue: Type of Lesion: LIVER: ADENOMA OR CARCINOMA, Dose [Carcinogen]: 2 PPM IN DRINKING WATER FOR 111 WK) was 5/55 (9%), 2/56 (4%), 56%, not significant and the “tumour outcome (control, treated, inhibition, significance)” value (3 UMOL/G OF DIET FOR 112 WK BEGINNING 1 WK PRIOR TO CARCINOGEN TREATMENT (STUDY DURATION: 112 WK), Route [Inhibitor]: ORAL, Species: RAT, Strain/Sex: F344/MALE, Target Tissue: Type of Lesion: LUNG: ADENOCARCINOMA, Dose [Carcinogen]: 2 PPM IN DRINKING WATER FOR 111 WK) was 23/56 (41%), 1/59 (2%), 95%, p=0.00001. For the same compound, the “tumour outcome (control, treated, inhibition, significance)” value (3 UMOL/G OF DIET FOR 112 WK BEGINNING 1 WK PRIOR TO CARCINOGEN TREATMENT (STUDY DURATION: 112 WK), Route [Inhibitor]: ORAL, Species: RAT, Strain/Sex: F344/MALE, Target Tissue: Type of Lesion: LUNG: ADENOMA, Dose [Carcinogen]: 2 PPM IN DRINKING WATER FOR 111 WK) was 16/56 (29%), 2/59 (3%), 90%, p=0.0002, the “tumour outcome (control, treated, inhibition, significance)” value (3 UMOL/G OF DIET FOR 112 WK BEGINNING 1 WK PRIOR TO CARCINOGEN TREATMENT (STUDY DURATION: 112 WK), Route [Inhibitor]: ORAL, Species: RAT, Strain/Sex: F344/MALE, Target Tissue: Type of Lesion: NASAL CAVITY: PAPILLOMA OR CARCINOMA, Dose [Carcinogen]: 2 PPM IN DRINKING WATER FOR 111 WK) was 1/48 (2%), 0/53 (0%), 100%, not significant and the “tumour outcome (control, treated, inhibition, significance)” value (3 UMOL/G OF DIET FOR 112 WK BEGINNING 1 WK PRIOR TO CARCINOGEN TREATMENT (STUDY DURATION: 112 WK), Route [Inhibitor]: ORAL, Species: RAT, Strain/Sex: F344/MALE, Target Tissue: Type of Lesion: PANCREAS (ENDOCRINE): BENIGN TUMOR, Dose [Carcinogen]: 2 PPM IN DRINKING WATER FOR 111 WK) was 5/52 (10%), 7/59 (12%), -20%, not significant. For the same compound, the “tumour outcome (control, treated, inhibition, significance)” value (3 UMOL/G OF DIET FOR 112 WK BEGINNING 1 WK PRIOR TO CARCINOGEN TREATMENT (STUDY DURATION: 112 WK), Route [Inhibitor]: ORAL, Species: RAT, Strain/Sex: F344/MALE, Target Tissue: Type of Lesion: PANCREAS (EXOCRINE): BENIGN TUMOR, Dose [Carcinogen]: 2 PPM IN DRINKING WATER FOR 111 WK) was 1/52 (2%), 8/59 (14%), -600%, p=0.025.
